Article PMC7866087, “Evaluation of Computationally Designed Peptides against TWEAK, a Cytokine of the Tumour Necrosis Factor Ligand Family” (International Journal of Molecular Sciences, 2021)
Several values for one entry are separate records, joined by “and”; a condition that tells them apart may be missing. Identical values can stand only once.

Test system: TWEAK-Fn14 signalling pathway, BRV5 cells
Assay: Cell-based screening of individual peptides, gene expression microarray in TWEAK-stimulated BRV5 cells
Set-up: species or system human
Conditions: 6 h; for regulation of probe genes by individual peptides: BRV5 + TWEAK 25 ng/mL, peptides 450 µM; for BIRC2 mRNA expression (normalized to NARS2) / HSP90B1 mRNA expression (normalized to NARS2) / IL6 mRNA expression (normalized to NARS2) / JUN mRNA expression (normalized to NARS2) / MAP4K4 mRNA expression (normalized to NARS2) / MAPK14 mRNA expression (normalized to NARS2) / NFKB2 mRNA expression (normalized to NARS2) / TNFRSF12A mRNA expression (normalized to NARS2) / TRAF2 mRNA expression (normalized to NARS2) / BIRC2 expression Z-Score / HSP90B1 expression Z-Score / IL6 expression Z-Score / JUN expression Z-Score / MAP4K4 expression Z-Score / MAPK14 expression Z-Score / NFKB2 expression Z-Score / TNFRSF12A expression Z-Score / TRAF2 expression Z-Score: individual peptides, BRV5 + TWEAK; for BIRC2 mRNA expression (normalized to NARS2) / HSP90B1 mRNA expression (normalized to NARS2) / IL6 mRNA expression (normalized to NARS2) / JUN mRNA expression (normalized to NARS2) / MAP4K4 mRNA expression (normalized to NARS2) / MAPK14 mRNA expression (normalized to NARS2) / NFKB2 mRNA expression (normalized to NARS2) / TNFRSF12A mRNA expression (normalized to NARS2) / TRAF2 mRNA expression (normalized to NARS2): 450 µM; for BIRC2 expression Z-Score / HSP90B1 expression Z-Score / IL6 expression Z-Score / JUN expression Z-Score / MAP4K4 expression Z-Score / MAPK14 expression Z-Score / NFKB2 expression Z-Score / TNFRSF12A expression Z-Score / TRAF2 expression Z-Score: normalized to NARS2
Description: Pool 1 and 5 were therefore deconstructed to assess the effect of individual peptides and their activity on same cell-based screening. Pools 1 and 5 were composed of peptides 45, 46, 42, 3, 49, 11, and 13; and of peptides 1, 9, 30, 35, 41, 43, 7, and 14, respectively. As before, and shown in Figure 4B, the level of expression of probe genes on TWEAK-stimulated (T) BRV5 cells is overall higher than on non-stimulated (NT) one. […] The structural model of peptides 43, 30, 35 and 49 bound to TWEAK can be seen in Figure 5 and Supplementary Materials Figures S4–S6, respectively.
Three different cell lines were used in this study: BRV5, MDA-MB 435 (435-P), and HT29. The BRV5 is a highly metastatic brain cell line, obtained in one of our laboratories by primary culture from a brain of a nude mouse inoculated with human 435-Br1 brain metastatic cells, as previously described and used as a model to test the peptides in cell cultures. […] The triple negative 435-P cell line is a useful human breast cancer model that expresses both epithelial and melanocytic markers, and was included as the parental cell from which 435-Br1 metastatic variant was initially originated (both cell lines kindly provided by Dr Fabra at IDIBELL Institute, Hospitalet de Llobregat, Spain). Finally, HT29 human colon carcinoma cells obtained from the European Type Culture Collection (ECACC 91072201) were used as a positive control of TWEAK dependent Fn14 over-expressing cells to evaluate TWEAK-Fn14 axis of brain metastatic variants.
Appropriate cell culture conditions were established as the controls needed in the expression of genes with and without peptides and with and without TWEAK activation, both as pools and individually (see Supplementary Materials Figure S2). The protocol started with the seeding of 125,000 cells/well in 500 µL of culture media supplemented with 10% fetal bovine serum (CM+FBS10%) in 24-well dishes for 24 h before removing FBS (CM-FBS). After overnight starvation in CM-FBS culture, different peptide treatment conditions (at final concentration of 450 µM) were established in the presence or absence of TWEAK (25 ng/mL final concentration) (Peprotech EC, Ltd., London, UK). Some cells were treated with peptides at a single, unique, initial dose (time 0) while other were treated with repeated doses to account for the effect cell-culture degradation. These include a repeated treatment every hour (i.e., […]), every two hours (time 0, 2, and 4) and every three hours (time 0 and 3)—see Supplementary Materials Figure S2 for diagrammatic depiction. At time 6 (after six hours) cells were lysed and RNA extracted for transcriptomic analyses (see next). Cell were culture for six hours as this was the time needed to achieve the highest upregulation of the TWEAK-Fn14 axis upon TWEAK treatment as shown in previous time-course RT-PCR experiments (see Figure 2).
RNA from cells was extracted 6 h after treatments by direct lysis on the well. The RNeasy Micro kit (Qiagen, Hilden, Germany) was used to isolate total RNA from cell lysate following manufacturer’s protocols including an additional step of digestion with DNase I (Qiagen, Hilden, Germany). Total RNA concentration was measured in a NanoDrop 1000 spectrophotometer (Thermo Scientific, Waltham, MA, USA). The RNA extracted from treated and untreated cells (see above) was used as a proxy for gene expression.
The quantitative RT-PCR was performed using Fluidigm Dynamic Array FlexSix array with the specific primers for gene expression (Delta Genes Assays, Wet lab tested on Dynamic Array IFC) designed to RefSeq for detection by pPCR EvaGreen assay (Dynamic Array FlexSix, Fluidigm Corporation). Each Flex Six IFC has a total of six independent partitions. Each partition has a 12 × 12 format (12 assay inlets and 12 sample inlets) and will be run independently as a separate experimental run. […]

| Sequence | regulation of probe genes by individual peptides | BIRC2 mRNA expression (normalized to NARS2) (mean of replicate columns) | HSP90B1 mRNA expression (normalized to NARS2) (mean of replicate columns) | IL6 mRNA expression (normalized to NARS2) (mean of replicate columns) | JUN mRNA expression (normalized to NARS2) (mean of replicate columns) | MAP4K4 mRNA expression (normalized to NARS2) (mean of replicate columns) | MAPK14 mRNA expression (normalized to NARS2) (mean of replicate columns) | NFKB2 mRNA expression (normalized to NARS2) (mean of replicate columns) | TNFRSF12A mRNA expression (normalized to NARS2) (mean of replicate columns) | TRAF2 mRNA expression (normalized to NARS2) (mean of replicate columns) | BIRC2 mRNA expression (normalized to NARS2) (replicate column 1) | HSP90B1 mRNA expression (normalized to NARS2) (replicate column 1) | IL6 mRNA expression (normalized to NARS2) (replicate column 1) | JUN mRNA expression (normalized to NARS2) (replicate column 1) | MAP4K4 mRNA expression (normalized to NARS2) (replicate column 1) | MAPK14 mRNA expression (normalized to NARS2) (replicate column 1) | NFKB2 mRNA expression (normalized to NARS2) (replicate column 1) | TNFRSF12A mRNA expression (normalized to NARS2) (replicate column 1) | TRAF2 mRNA expression (normalized to NARS2) (replicate column 1) | BIRC2 mRNA expression (normalized to NARS2) (replicate column 2) | also measured |
| --- | --- | --- | --- | --- | --- | --- | --- | --- | --- | --- | --- | --- | --- | --- | --- | --- | --- | --- | --- | --- | --- |
| SGVSTAQLD [Peptide 4] | induced a higher level of expression of the gene | 0.6267 | 2.423 | 0.001966 | 0.1025 | 0.2128 | 0.1993 | 0.04458 | 0.01499 | 0.01397 | 0.6069 | 2.308 | 0.001514 | 0.09341 | 0.1972 | 0.1927 | 0.04237 | 0.01676 | 0.01481 | 0.6465 | HSP90B1 mRNA expression (normalized to NARS2) (replicate column 2): 2.538; IL6 mRNA expression (normalized to NARS2) (replicate column 2): 0.002418; JUN mRNA expression (normalized to NARS2) (replicate column 2): 0.1116; MAP4K4 mRNA expression (normalized to NARS2) (replicate column 2): 0.2284; MAPK14 mRNA expression (normalized to NARS2) (replicate column 2): 0.2059; NFKB2 mRNA expression (normalized to NARS2) (replicate column 2): 0.04678; TNFRSF12A mRNA expression (normalized to NARS2) (replicate column 2): 0.01322; TRAF2 mRNA expression (normalized to NARS2) (replicate column 2): 0.01313; BIRC2 expression Z-Score (listed as P4): 0.4721; HSP90B1 expression Z-Score (listed as P4): 0.3256; IL6 expression Z-Score (listed as P4): 0.0669 and 0.06688; JUN expression Z-Score (listed as P4): 0.0589 and 0.05892; MAP4K4 expression Z-Score (listed as P4): 0.6937; MAPK14 expression Z-Score (listed as P4): -0.0192 and -0.01918; NFKB2 expression Z-Score (listed as P4): 0.3908; TNFRSF12A expression Z-Score (listed as P4): -0.6289; TRAF2 expression Z-Score (listed as P4): -0.2666 |
| TKGGGTADA [Peptide 3] | induced a higher level of expression of the gene | 0.7197 | 3.909 | 0.003239 | 0.1441 | 0.2389 | 0.2205 | 0.05335 | 0.03024 | 0.009427 | 0.6856 | 3.773 | 0.004016 | 0.1498 | 0.2356 | 0.2165 | 0.05516 | 0.03211 | 0.009734 | 0.7537 | HSP90B1 mRNA expression (normalized to NARS2) (replicate column 2): 4.045; IL6 mRNA expression (normalized to NARS2) (replicate column 2): 0.002462; JUN mRNA expression (normalized to NARS2) (replicate column 2): 0.1383; MAP4K4 mRNA expression (normalized to NARS2) (replicate column 2): 0.2421; MAPK14 mRNA expression (normalized to NARS2) (replicate column 2): 0.2245; NFKB2 mRNA expression (normalized to NARS2) (replicate column 2): 0.05153; TNFRSF12A mRNA expression (normalized to NARS2) (replicate column 2): 0.02838; TRAF2 mRNA expression (normalized to NARS2) (replicate column 2): 0.00912; BIRC2 expression Z-Score (listed as P3): 1.1157 and 1.116; HSP90B1 expression Z-Score (listed as P3): 2.9702 and 2.97; IL6 expression Z-Score (listed as P3): 1.1687 and 1.169; JUN expression Z-Score (listed as P3): 0.5369; MAP4K4 expression Z-Score (listed as P3): 1.3444 and 1.344; MAPK14 expression Z-Score (listed as P3): 0.3511; NFKB2 expression Z-Score (listed as P3): 1.2258 and 1.226; TNFRSF12A expression Z-Score (listed as P3): 1.1044 and 1.104; TRAF2 expression Z-Score (listed as P3): -0.4866 |
